Experimental data taken from patent publication US20210386729A1, “METHODS FOR TREATING LIVER DISORDERS USING FXR AGONISTS” (NOVARTIS AG, priority 2016, published 2021).
Entries after “also recorded” stand apart in the source; their conditions may differ. Like-named read-outs stand apart in the source and are kept apart here.

Columns and labels:
[1] = test system: FXR target genes
[2] = Pharmacokinetics in the chronic 2 week rat ANIT-induced cholestasis model; type: in vivo; settings: male, Wistar, po, day 13, serum; for AUC(0-t): read-out: AUC 0-24 hr
Experimental: Male Wistar rats were treated with ANIT (0.1% ANIT in chow diet) for 2 weeks. […] The serum samples were collected on day 14 for analysis of biomarkers of hepatobiliary injury (including ALT, AST, bilirubin and bile acids). […] The mean biomarker data were compared to the PK data (average concentration at each dose) for the modeling. The IC80 was determined using the Inhibitory effect Imax model (effect C=0 at Imax, C=infinity at E0) built in Phoenix WinNonlin 6.3 software. […] Therefore, we chose to use a mean of the IC80 for the four biomarkers (total bilirubin, total bile acids, ALT and AST) as the IC80 for efficacy in this model.
ND=not determined. Data are presented as mean (n=3/group).

[3] = test system: rat alpha-naphthyl-isothiocyanate (ANIT) model; assay: Chronic treatment rat ANIT model, serum markers of cholestasis and liver damage; type: in vivo; settings: 14 days oral dosing
Experimental: This model was utilized because it recapitulates many features of cholestasis observed in human PBC. In rats, ANIT-treatment leads to hepatic inflammatory cell infiltrate, bile duct hyperplasia, necrosis of bile duct epithelium, expansion of the hepatic portal region, hepatic fibrosis, hepatocellular necrosis and elevated levels of circulating bile acids, bilirubin, ALT, AST and GGT. These features are similar to subjects with advanced PBC.
Rats were treated with alpha-naphthyl-isothiocyanate (ANIT) (0.1% w/w) in food for 3 days prior to treatment with the compound at the indicated doses or with vehicle control (“Veh”). A non-cholestatic control group was fed standard chow diet without ANIT, and serve as the non-cholestatic control animals (“Control”). After 14 days of oral dosing, the indicated analyte was measured in serum. LLQ, lower limit of quantitation. Mean±SEM; n=5.

[4] = Safety and tolerability in healthy subjects; type: in vivo, human
[5] = Single oral dose plasma pharmacokinetics in healthy subjects; type: in vivo, human; settings: for CL/F / AUC(0-inf) / AUC(0-t) / Cmax / half-life / Tmax: healthy subjects, plasma; for AUC(0-inf) / AUC(0-t) / Cmax / half-life / Tmax: human
[6] = test system: FGF15; assay: Serum FGF15 (MSD assay) in chronic rat ANIT-induced cholestasis model; type: in vivo; settings: chronic treatment rat ANIT model
Experimental: Serum FGF15 levels were quantified using an FGF15 Meso Scale Discovery (MSD) assay. Mouse FGF15 antibody from R&D Systems (AF6755) was used both as capture and detection antibody in the assay. MSD SULFO-TAG NHS-Ester was used to label the FGF15 antibody. MSD standard 96-well plates were coated with the FGF15 capture antibody and the plates were blocked with MSD Blocker A (R93AA-2). After washing the plate with PBS+0.05% Tween 20, MSD diluent 4 was dispensed into each well and incubated for 30 min. 25 μl of calibrator dilutions or samples (serum or EDTA plasma) were dispensed into each well and incubated with shaking at RT. After washing, detection antibody was added and incubated with shaking for 1 h at RT. After washing and the addition of MSD Read buffer (R92TC-2), the plate was read on an MSD SECTOR Imager 6000. Plots of the standard curve and unknown samples were calculated using MSD data analysis software.
Activation of FXR in the ileum induces the expression of fibroblast growth factor 15 (FGF15 in rodent; FGF19 in human), a hormone that is secreted in the portal blood and signals to the liver to repress Cyp7a1 expression synergistically with SHP. The direct FXR-dependent induction of FGF15/19 along with FGF15/19's anti-cholestatic properties makes it a convenient serum biomarker for detecting target engagement of FXR agonists.

[7] = clinical study in healthy subjects
[8] = 10 ug, single oral dose 10 μg, fasted, mean
[9] = 30 ug, single oral dose 30 μg, fasted, mean
[10] = 100 ug, single oral dose 100 μg, fasted, mean
[11] = 300 ug, single oral dose 300 μg, fasted, mean
[12] = 1000 ug, single oral dose 1000 μg, fasted, mean
[13] = 3000 ug, single oral dose 3000 μg, fasted, mean

O=C(O)c1cc(F)c2nc(N3C4CC[C@H]3CC(OCc3c(-c5ccccc5OC(F)(F)F)noc3C3CC3)C4)sc2c1 (some centres unmarked) [Compound A]
BSEP gene expression levels ([1]; rat liver): significant, dose-dependent increases
SHP gene expression levels ([1]; rat liver): significant, dose-dependent increases
estimated effective dose (mean ED and median ED) ([1]; rats treated two weeks, FXR target gene induction/repression in liver and ileum, day 14): approximately 0.01 mg/kg
Cmax ([2]; 0.01 mg/kg): 0.39 ng/mL
AUC(0-t) ([2]; 0.01 mg/kg): 3.49 ng·h/mL
Cmax ([2]; 0.05 mg/kg): 2.28 ng/mL
Cmax ([2]; 0.25 mg/kg): 15.6 ng/mL
AUC(0-t) ([2]; 0.25 mg/kg): 158 ng·h/mL
Cmax ([2]; 1.0 mg/kg): 52 ng/mL
AUC(0-t) ([2]; 1.0 mg/kg): 582 ng·h/mL
serum bile acid concentrations [3]: Marked reductions
serum bilirubin concentrations [3]: Marked reductions
hepatobiliary injury indicators (AST, ALT, bilirubin, bile acids) in serum ([3]; 0.01 to 3 mg/kg): improved many of these indicators starting at doses as low as 0.01 mg/kg
elevation of transaminases (ALT and AST), number of subjects ([4]; 100 μg repeated daily): 3 subjects
ALP or bilirubin ([4]; 100 μg repeated daily, any subject): no elevation
time for elevated ALT to resolve to within normal levels ([4]; 100 μg, without intervention): ≤ 14 days
adverse events related to itch [4, 7]: no adverse events related to itch
physical exam, vital signs or ECGs [4, 7]: No significant findings
tolerability ([4]; repeated daily administration, doses up to and including 60 μg): well tolerated
CL/F ([5]; single oral dose 10 μg, fasted, mean): 2.98 L/h
CL/F ([5]; single oral dose 30 μg, fasted, mean): 2.26 L/h
CL/F ([5]; single oral dose 100 μg, fasted, mean): 3.08 L/h
CL/F ([5]; single oral dose 300 μg, fasted, mean): 3.21 L/h
CL/F ([5]; single oral dose 1000 μg, fasted, mean): 2.43 L/h
CL/F ([5]; single oral dose 3000 μg, fasted, mean): 3.63 L/h
AUC(0-inf) [5, 8]: 3.39 ng·h/mL
AUC(0-t) [5, 8]: 2.79 ng·h/mL
Cmax [5, 8]: 0.186 ng/mL
half-life ([5]; 10 ug, single oral dose 10 μg, fasted, mean, read-out: T1/2 (converted)): 14.9 h
Tmax ([5]; 10 ug, single oral dose 10 μg, fasted, median, read-out: Tmax): 4 h
AUC(0-inf) [5, 9]: 13.4 ng·h/mL
AUC(0-t) [5, 9]: 12.7 ng·h/mL
Cmax [5, 9]: 0.627 ng/mL
half-life ([5]; 30 ug, single oral dose 30 μg, fasted, mean, read-out: T1/2 (converted)): 13.7 h
Tmax ([5]; 30 ug, single oral dose 30 μg, fasted, median, read-out: Tmax): 4 h
AUC(0-inf) [5, 10]: 37.9 ng·h/mL
AUC(0-t) [5, 10]: 34.8 ng·h/mL
Cmax [5, 10]: 1.73 ng/mL
half-life ([5]; 100 ug, single oral dose 100 μg, fasted, mean, read-out: T1/2 (converted)): 13.5 h
Tmax ([5]; 100 ug, single oral dose 100 μg, fasted, median, read-out: Tmax): 4 h
AUC(0-inf) [5, 11]: 123 ng·h/mL
AUC(0-t) [5, 11]: 119 ng·h/mL
Cmax [5, 11]: 6.41 ng/mL
half-life ([5]; 300 ug, single oral dose 300 μg, fasted, mean, read-out: T1/2 (converted)): 15.3 h
Tmax ([5]; 300 ug, single oral dose 300 μg, fasted, median, read-out: Tmax): 4 h
AUC(0-inf) [5, 12]: 482 ng·h/mL
AUC(0-t) [5, 12]: 416 ng·h/mL
Cmax [5, 12]: 22.1 ng/mL
half-life ([5]; 1000 ug, single oral dose 1000 μg, fasted, mean, read-out: T1/2 (converted)): 21.9 h
Tmax ([5]; 1000 ug, single oral dose 1000 μg, fasted, median, read-out: Tmax): 4 h
AUC(0-inf) [5, 13]: 933 ng·h/mL
AUC(0-t) [5, 13]: 888 ng·h/mL
Cmax [5, 13]: 54.2 ng/mL
half-life ([5]; 3000 ug, single oral dose 3000 μg, fasted, mean, read-out: T1/2 (converted)): 16.5 h
Tmax ([5]; 3000 ug, single oral dose 3000 μg, fasted, median, read-out: Tmax): 4 h
Tmax ([5]; single oral dose, fasted, read-out: median Tmax): 4 h
half-life ([5]; single oral dose, range across doses, read-out: mean apparent terminal elimination half-life): 13 to 22 h
dose proportionality of mean Cmax and AUCinf ([5]; single dose, dose range 10 μg to 3000 μg): approximately dose proportional increase
serum FGF15 levels [6]: stimulated serum FGF15 expression; also recorded: Significant dose-dependent induction
